According to ChEMBL document CHEMBL1201862, “PubChem BioAssay data set” (2004):
Active and inactive are the calls of the source.

Columns and labels:
[1] = target: FAD-linked sulfhydryl oxidase ALR (Homo sapiens, UniProt P55789); test: inhibitors of human ALR sulfhydryl oxidase, dose response, biochemical, H2O2 detection, luminescence, cherry-pick (AID 493248)
[2] = cytotoxicity in KRAS-transformed pancreatic duct cells, primary screen, cell-based, fluorescence, HTS (AID 431); type: functional; settings: Homo sapiens;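 note: cell line used: HPDE-C7K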
[3] = target: Large T antigen (Simian virus 40, UniProt P03070); type: functional, Betapolyomavirus macacae;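 note: Confirmatory-stage PubChem screen for compounds that inhibit SV40 T antigen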
[4] = cytotoxicity in HPDE-C7 cells, cell-based, fluorescence, HTS (AID 430); type: functional; settings: Homo sapiens
[5] = target: Kallikrein-7 (Homo sapiens, UniProt P49862); test: Fluorescence Intensity-based biochemical primary high throughput dose response assay to identify activators of kallikrein-7 (K7) zymogen.
[6] = target: Eukaryotic translation initiation factor 4E (Mus musculus, UniProt P63073); test: eIF4E–eIF4G protein interaction inhibitors, dose response, biochemical, TR-FRET (AID 855); type: functional;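 note: potency for disrupting eIF4E binding to eIF4GI seen as loss of FRET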
[7] = inhibitors of Vif binding to APOBEC3G peptide, primary screen, biochemical, TR-FRET, GST-Vif 1-94, biotin-A3G peptide, dose response retest (AID 1117319); type: functional;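 note: TR-FRET signal of purified GST-Vif binding a biotinylated A3G peptide; inhibitors lower the FRET signal by blocking Vif and A3G binding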
[8] = target: T1, Protein Tat (Human immunodeficiency virus type 1 group M subtype B (isolate HXB2)(HIV-1), UniProt P04608); type: functional;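 note: tat binding to TAR RNA read out by fluorescence polarization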
T1 sequence (P04608 whole entry): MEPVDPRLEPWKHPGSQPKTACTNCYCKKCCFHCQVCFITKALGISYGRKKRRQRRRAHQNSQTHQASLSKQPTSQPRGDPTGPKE

[9] = Luminescence Cell-Based Dose Retest to Confirm Inhibitors of Cancer Stem Cells. [Related pubchem assays (depositor defined):AID2717, AID2721]; type: functional; settings: Homo sapiens
[10] = inhibitors of HIV Env-driven cell fusion, dose response, cherry-pick (AID 652057); type: functional, cell-based
[11] = microbe, parasite or virus in culture; type: functional; settings: Mycobacterium tuberculosis
[12] = inhibitors of clade B AD8 Env fusion, dose response, cell-based, cherry-pick (AID 652062); type: functional;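 note: luciferase signal from cell-cell fusion driven by HIV-1 clade B AD8 Env; potency is for inhibitors of fusion seen as a drop in luminescence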
[13] = growth suppression of beta-catenin-knockout colon cells, dose response, cell-based, HCT116, human colon tumor (AID 1045); type: functional;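 note: HCT116 colon tumor cells with beta catenin knocked out; cells exposed to compound for 60 hours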
[14] = growth suppression of PTEN-null colon cells, dose response, cell-based, HCT116 PTEN knockout (AID 1047); type: functional;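 note: HCT116 colon tumor cells with PTEN knocked out; cells exposed to compound for 60 hours before readout; potency for loss of cell viability measured by luminescence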
[15] = Luminescence Cell-Based Dose Response HTS to Identify Inhibitors of 5'UTR Stem-Loop Driven Prion Protein mRNA Translation in H4 Neuroglioblastoma Cells. [Related pubchem assays: 1827 (Project Summary), 1813 (Primary HTS)]; type: functional
[16] = CEM21 lymphoblast cell cytotoxicity, dose response, cytotoxicity control for viral fusion inhibitor project, CellTiter-Glo luminescence, cherry-picked (AID 652042); type: functional, cell-based;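 note: potency for signal decrease meaning cytotoxicity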
[17] = ZM109 Env clade C HIV-1 fusion inhibitors, dose response, HeLa effector, CEM target cells, luciferase, cherry-pick (AID 652058); type: functional, cell-based
[18] = target: T2, Corticotropin-releasing factor receptor 2/Corticotropin-releasing factor-binding protein (Homo sapiens, UniProt P24387+Q13324); test: activators of CRF receptor 2 with binding protein – uHTS hits, confirmation (AID 602473); type: functional; settings: read-out: EC50_Mean
T2 sequence (Q13324 whole entry): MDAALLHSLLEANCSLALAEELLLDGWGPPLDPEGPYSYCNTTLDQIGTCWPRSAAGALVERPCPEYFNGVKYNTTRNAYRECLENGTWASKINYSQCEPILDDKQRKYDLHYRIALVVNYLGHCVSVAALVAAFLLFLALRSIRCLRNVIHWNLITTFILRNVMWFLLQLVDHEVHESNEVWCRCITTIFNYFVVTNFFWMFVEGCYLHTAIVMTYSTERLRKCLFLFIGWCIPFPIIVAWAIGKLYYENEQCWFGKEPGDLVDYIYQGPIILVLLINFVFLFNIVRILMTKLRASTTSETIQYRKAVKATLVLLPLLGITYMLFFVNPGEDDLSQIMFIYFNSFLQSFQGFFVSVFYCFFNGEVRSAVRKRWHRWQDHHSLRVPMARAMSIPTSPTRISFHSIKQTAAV
T2 sequence (P24387 whole entry): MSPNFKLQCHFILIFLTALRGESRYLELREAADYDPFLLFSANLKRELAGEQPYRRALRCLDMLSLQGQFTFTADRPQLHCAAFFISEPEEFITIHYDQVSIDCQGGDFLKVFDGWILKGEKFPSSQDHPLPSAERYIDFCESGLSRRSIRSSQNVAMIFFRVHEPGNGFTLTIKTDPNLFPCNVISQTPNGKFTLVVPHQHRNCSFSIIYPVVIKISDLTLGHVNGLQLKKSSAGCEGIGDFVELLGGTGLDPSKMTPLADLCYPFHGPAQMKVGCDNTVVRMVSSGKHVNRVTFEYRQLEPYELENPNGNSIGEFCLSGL

[19] = target: T2, Corticotropin-releasing factor receptor 2/Corticotropin-releasing factor-binding protein; test: Dose Response confirmation of uHTS hits for small molecule antagonists of the CRF-binding protein and CRF-R2 receptor complex.; type: functional; settings: read-out: IC50_Mean
[20] = CRF-BP/CRF-R2 complex antagonists, dose response, cell-based, uHTS hits, 384-well (AID 651639); type: functional, Homo sapiens; settings: read-out: IC50_Mean
[21] = target: Beta-galactosidase (Escherichia coli, UniProt Q8VNN2); test: Dose response counterscreen for EBI2 assay utilizing the enzyme, b-galactosidase.; type: functional
[22] = control 3'UTR Renilla luciferase suppression, dose response, counter-screen for Shn3 inhibitor project, cell-based, Clone20-Shn3RL, cherry-picked (AID 624133); type: functional
[23] = inhibitors of PGC1a acetylation in cells, dose response, cell-based, cherry-picked samples (AID 720514); type: functional;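 note: potency may reflect raised or lowered acetylation signal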
[24] = Shn3 3'UTR reporter inhibitors, dose response, cell-based, Clone20 osteoblasts, firefly luciferase, cherry-picked (AID 624132); type: functional;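 note: firefly luciferase luminescence from reporter carrying the Shn3 3'UTR in osteoblasts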
[25] = HepG2 cell cytotoxicity, dose response, cytotoxicity control for Shn3 inhibitor project, CellTiter-Glo, cherry-picked (AID 624134); type: functional, cell-based
[26] = target: Paired box protein Pax-8 (Homo sapiens, UniProt Q06710); test: inhibitors of PAX8-driven TPO luciferase reporter, dose response, RMG-I cells, cherry-pick (AID 687027); type: functional, cell-based;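 note: luciferase reporter driven by Pax8 target thyroperoxidase promoter measured by SteadyGlo luminescence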
[27] = target: T3, Hepatocyte nuclear factor 4-alpha (Homo sapiens, UniProt P41235); type: functional, cell-based;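 note: biochemical luminescence-based dose-response counterscreen measuring inhibition of HNF4 dimerization, run alongside a screen for blockers of ABHD5–perilipin-5 interaction; split luciferase complementation of HNF4 fusion proteins in cell lysate measuring dimerization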
T3 sequence (P41235 whole entry): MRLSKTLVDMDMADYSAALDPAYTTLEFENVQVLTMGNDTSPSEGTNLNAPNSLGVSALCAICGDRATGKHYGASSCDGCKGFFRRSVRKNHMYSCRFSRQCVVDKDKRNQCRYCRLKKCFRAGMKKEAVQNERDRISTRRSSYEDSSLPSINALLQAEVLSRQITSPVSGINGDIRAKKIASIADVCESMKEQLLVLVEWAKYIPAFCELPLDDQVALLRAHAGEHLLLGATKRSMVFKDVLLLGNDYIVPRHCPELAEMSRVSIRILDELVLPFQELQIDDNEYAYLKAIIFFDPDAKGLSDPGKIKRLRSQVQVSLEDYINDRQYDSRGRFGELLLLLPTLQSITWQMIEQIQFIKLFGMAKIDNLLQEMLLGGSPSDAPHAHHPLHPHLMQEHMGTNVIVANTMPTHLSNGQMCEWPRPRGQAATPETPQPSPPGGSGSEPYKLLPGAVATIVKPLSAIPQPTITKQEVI

[28] = cytotoxicity in OVCAR8 ovarian cancer cells, dose response, PAX8 project, cell-based, plate reader, dry powder samples (AID 743197); type: functional; settings: OVCAR-8
[29] = NIH:OVCAR-3 ovarian cancer cell cytotoxicity, dose response, PAX8 inhibitor project, plate reader, dry powder samples (AID 743044); type: functional, cell-based
[30] = target: T4, Mannose-6-phosphate isomerase (Homo sapiens, UniProt P34949); test: human PMI inhibitors, high substrate, primary screen, biochemical, fluorescence intensity, high mannose 6-phosphate (AID 1220)
T4 sequence (P34949 whole entry): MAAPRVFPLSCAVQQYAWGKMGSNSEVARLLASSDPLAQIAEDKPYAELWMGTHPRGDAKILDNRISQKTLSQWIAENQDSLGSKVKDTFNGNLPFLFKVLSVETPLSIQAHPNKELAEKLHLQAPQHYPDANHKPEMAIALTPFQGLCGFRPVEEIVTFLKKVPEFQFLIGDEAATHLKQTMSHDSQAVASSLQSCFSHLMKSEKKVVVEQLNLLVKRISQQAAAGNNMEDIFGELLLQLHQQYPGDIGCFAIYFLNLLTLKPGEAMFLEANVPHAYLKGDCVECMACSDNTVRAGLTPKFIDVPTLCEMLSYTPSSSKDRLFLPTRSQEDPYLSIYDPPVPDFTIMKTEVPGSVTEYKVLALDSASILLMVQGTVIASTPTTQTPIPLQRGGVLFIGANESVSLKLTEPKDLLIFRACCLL

[31] = target: T5, Endoribonuclease toxin MazF (Escherichia coli K-12, UniProt P0AE70); test: fluorescent RNA oligo signal without MazF, dose response, counter-screen for MazEF activator project, biochemical, fluorescence, single-stranded RNase substrate (AID 588502); type: functional
T5 sequence (P0AE70 whole entry): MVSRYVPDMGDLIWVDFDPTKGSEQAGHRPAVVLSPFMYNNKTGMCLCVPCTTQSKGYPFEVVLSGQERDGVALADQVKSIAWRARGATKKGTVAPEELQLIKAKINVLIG

[32] = target: T5, Endoribonuclease toxin MazF; test: MazF toxin RNase activators, dose response, biochemical, fluorescence, single-stranded RNA substrate, uHTS hits (AID 588481); type: functional
[33] = off-target signal loss in HeLa-CEM21 co-culture – HeLa F-luc CTL cells, cherry-picked, counter-screen for HIV-1 Env fusion inhibitor project, dose response (AID 652040); type: functional, cell-based;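 note: potency for signal decrease marking cytotoxic or nonspecific inhibition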

Kallikrein-7, sequence (P49862 whole entry): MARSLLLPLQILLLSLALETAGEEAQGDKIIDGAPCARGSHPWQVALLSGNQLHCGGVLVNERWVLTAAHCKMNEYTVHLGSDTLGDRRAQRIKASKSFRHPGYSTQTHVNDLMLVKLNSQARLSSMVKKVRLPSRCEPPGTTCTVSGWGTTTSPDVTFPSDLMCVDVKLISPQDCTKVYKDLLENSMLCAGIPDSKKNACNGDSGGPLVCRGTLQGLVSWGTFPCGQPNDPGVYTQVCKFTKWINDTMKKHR
Beta-galactosidase, sequence (Q8VNN2 whole entry): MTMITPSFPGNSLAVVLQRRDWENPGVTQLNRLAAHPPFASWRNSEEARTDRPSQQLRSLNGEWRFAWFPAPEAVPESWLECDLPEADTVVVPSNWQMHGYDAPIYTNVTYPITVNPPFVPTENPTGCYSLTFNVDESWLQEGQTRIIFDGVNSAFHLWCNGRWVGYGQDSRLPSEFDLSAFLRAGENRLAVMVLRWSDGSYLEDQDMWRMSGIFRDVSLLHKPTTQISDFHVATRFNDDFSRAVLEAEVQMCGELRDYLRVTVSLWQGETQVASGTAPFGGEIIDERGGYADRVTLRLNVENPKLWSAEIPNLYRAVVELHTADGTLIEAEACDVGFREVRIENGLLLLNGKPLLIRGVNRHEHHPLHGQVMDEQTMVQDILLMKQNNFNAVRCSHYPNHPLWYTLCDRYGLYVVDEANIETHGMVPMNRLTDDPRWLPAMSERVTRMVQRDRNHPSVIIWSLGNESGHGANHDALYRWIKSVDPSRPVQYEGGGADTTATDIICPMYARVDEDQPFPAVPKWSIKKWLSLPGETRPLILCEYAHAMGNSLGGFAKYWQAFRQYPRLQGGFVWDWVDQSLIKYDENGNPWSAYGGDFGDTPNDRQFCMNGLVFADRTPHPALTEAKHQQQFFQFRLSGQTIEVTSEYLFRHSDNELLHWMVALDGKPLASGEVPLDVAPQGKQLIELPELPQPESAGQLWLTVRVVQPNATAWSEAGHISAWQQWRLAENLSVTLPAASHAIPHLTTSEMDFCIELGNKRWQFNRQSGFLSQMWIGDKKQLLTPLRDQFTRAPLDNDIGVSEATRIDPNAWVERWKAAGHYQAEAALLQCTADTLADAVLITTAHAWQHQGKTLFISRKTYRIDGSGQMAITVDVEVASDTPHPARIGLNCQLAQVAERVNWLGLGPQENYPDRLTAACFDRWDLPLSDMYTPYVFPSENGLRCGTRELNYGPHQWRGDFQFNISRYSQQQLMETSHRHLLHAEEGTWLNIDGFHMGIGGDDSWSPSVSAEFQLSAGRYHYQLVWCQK
Eukaryotic translation initiation factor 4E, sequence (P63073 whole entry): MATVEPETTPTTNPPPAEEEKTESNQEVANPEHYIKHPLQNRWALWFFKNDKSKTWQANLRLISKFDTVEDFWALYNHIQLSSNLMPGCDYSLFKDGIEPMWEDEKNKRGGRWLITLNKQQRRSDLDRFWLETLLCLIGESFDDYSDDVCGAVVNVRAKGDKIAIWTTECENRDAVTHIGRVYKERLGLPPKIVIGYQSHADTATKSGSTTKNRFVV
Paired box protein Pax-8, sequence (Q06710 whole entry, the tested form may be a part): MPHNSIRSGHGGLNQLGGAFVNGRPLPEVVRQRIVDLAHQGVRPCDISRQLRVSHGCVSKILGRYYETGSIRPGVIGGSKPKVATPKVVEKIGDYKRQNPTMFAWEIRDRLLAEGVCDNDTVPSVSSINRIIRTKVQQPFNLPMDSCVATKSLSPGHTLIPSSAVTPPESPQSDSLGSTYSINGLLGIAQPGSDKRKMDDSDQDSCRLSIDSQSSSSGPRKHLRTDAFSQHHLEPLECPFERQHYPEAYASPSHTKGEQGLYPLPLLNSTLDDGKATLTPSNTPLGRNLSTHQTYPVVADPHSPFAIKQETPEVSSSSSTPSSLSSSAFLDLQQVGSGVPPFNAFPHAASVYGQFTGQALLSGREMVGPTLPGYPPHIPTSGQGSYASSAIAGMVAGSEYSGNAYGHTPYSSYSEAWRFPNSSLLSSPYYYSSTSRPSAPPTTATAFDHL
FAD-linked sulfhydryl oxidase ALR, sequence (P55789 whole entry): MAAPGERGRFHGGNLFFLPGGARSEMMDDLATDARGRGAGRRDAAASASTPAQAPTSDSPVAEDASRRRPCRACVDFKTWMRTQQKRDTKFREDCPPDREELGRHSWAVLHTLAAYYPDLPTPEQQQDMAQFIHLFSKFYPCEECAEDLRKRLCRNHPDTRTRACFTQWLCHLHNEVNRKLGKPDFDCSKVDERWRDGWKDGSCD
Large T antigen, sequence (P03070 whole entry): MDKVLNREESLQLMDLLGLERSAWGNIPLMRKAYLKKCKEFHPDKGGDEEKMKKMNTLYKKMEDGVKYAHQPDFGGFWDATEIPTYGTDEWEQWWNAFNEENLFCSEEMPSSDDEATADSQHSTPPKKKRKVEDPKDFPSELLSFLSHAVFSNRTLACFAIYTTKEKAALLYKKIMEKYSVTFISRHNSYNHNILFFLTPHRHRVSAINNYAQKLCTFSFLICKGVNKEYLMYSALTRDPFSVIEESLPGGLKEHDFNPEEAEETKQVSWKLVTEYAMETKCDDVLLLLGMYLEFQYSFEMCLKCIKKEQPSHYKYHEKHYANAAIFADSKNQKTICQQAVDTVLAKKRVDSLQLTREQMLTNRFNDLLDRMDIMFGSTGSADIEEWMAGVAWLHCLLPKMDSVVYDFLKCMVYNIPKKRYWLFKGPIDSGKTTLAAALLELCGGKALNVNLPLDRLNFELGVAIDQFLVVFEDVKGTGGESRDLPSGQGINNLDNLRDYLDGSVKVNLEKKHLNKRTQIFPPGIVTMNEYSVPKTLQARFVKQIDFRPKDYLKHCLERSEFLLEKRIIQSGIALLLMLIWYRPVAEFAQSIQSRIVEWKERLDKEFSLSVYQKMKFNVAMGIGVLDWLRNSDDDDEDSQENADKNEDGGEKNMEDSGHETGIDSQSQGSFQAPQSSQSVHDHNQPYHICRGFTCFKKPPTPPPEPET

## O=C1CC(N2CCN(c3ccc(O)cc3)CC2)C(=O)N1Cc1cccs1 (stereo not given)
[1]
  AC50: 0.123 µM (active)
[2]
  EC50: 12 µM (active)
[3]
  IC50: 5.41 µM (active)
[4]
  EC50: 6.78 µM (active)

## O=S(=O)(c1ccc(-c2cn3ccccc3n2)cc1)N1CCOCC1
[5]
  EC50: > 69.5 µM (inactive)

## CN(C)S(=O)(=O)[n+]1ccn(C)c1.c1ccc([B-](c2ccccc2)(c2ccccc2)c2ccccc2)cc1
[6]
  IC50: 15.7 µM (active)
[2]
  EC50: 1.77 µM (active)
[4]
  EC50: 2.68 µM (active)

## COc1ccc(S(=O)(=O)Nc2ccc3c(c2)OCO3)cc1C
[7]
  IC50: > 100 µM (active)

## COC(=O)C1=C(C)NC(=O)/C1=C\c1cccs1
[8]
  IC50: > 100 µM (active)
[7]
  IC50: > 100 µM (active)

## COc1ccc2c(C)nc(Nc3nc(C)c(C)c(O)n3)nc2c1
[9]
  AC50: 6.84 µM (active)
[10]
  AC50: 10.3 µM (active)
[11]
  CC50: 7.44 µM (active)
[12]
  AC50: 8.79 µM (active)
[13]
  EC50: 4.69 µM (active)
[14]
  EC50: 5.4 µM (active)
[15]
  EC50: > 120 µM (not active)
[16]
  AC50: 7.32 µM (active)
[17]
  AC50: 2.84 µM (active)

## CCOC(=O)c1ccc(NC(=O)CSCc2ccco2)cc1
[8]
  IC50: 81.6 µM (inconclusive)
[7]
  IC50: > 73.7 µM (active)

## O=C(Nc1cccc(F)c1)c1coc(=O)c(Br)c1
[18]
  EC50: > 53 µM (inactive)
[19]
  IC50: 9.89 µM (active)
[20]
  IC50: 12.4 µM (active)

## O=C(Nc1ccc(NC(=O)c2ccccc2O)cc1)Nc1ccc(F)cc1F
[5]
  EC50: 9.78 µM (active)

## Cc1cc([N+](=O)[O-])ccc1NCc1ccc2c(c1)OCCO2
[18]
  EC50: > 53 µM (inactive)
[19]
  IC50: 30.1 µM (active)
[20]
  IC50: 19.9 µM (active)

## CCOc1ccc(N(CC(=O)NCCOc2ccc(C)cc2)S(=O)(=O)c2ccccc2)cc1
[21]
  IC50: > 80 µM (inactive)

## CCOC(=O)N1CCN(C(=O)COc2ccc3c(c2)C(=O)CC(C)(C)O3)CC1
[5]
  EC50: > 69.5 µM (inactive)

## CCOC(=O)N1CCN(C(=O)CSc2ccc(Cl)cc2)CC1
[21]
  IC50: > 80 µM (inactive)

## Cc1c(NS(=O)(=O)c2ccccc2)ccc([N+](=O)[O-])c1Cl
[18]
  EC50: > 53 µM (inactive)
[19]
  IC50: 3.86 µM (active)
[20]
  IC50: 13.2 µM (active)

## C#CCN(C[C@@H]1[C@@H](OC(=O)NC2CCCC2)[C@@H](OC(=O)NC2CCCC2)Cn2c(=O)ccc(=O)n21)S(=O)(=O)c1ccc(C)cc1
[22]
  AC50: 14.4 µM (active)
[23]
  AC50: 3.87 µM (active)
[24]
  AC50: 12.9 µM (active)
[25]
  AC50: 23.1 µM (active)
[26]
  AC50: 6.12 µM (active)
[27]
  IC50: 16.5 µM (inactive)

## C[C@@H]1CCCCO[C@H](CN(C)CC2CCCCC2)[C@H](C)CN([C@@H](C)CO)C(=O)c2cc(NC(=O)Nc3ccccc3)ccc2O1
[28]
  AC50: 61 µM (active)
[26]
  AC50: 10.9 µM (active)
[29]
  AC50: 57 µM (active)

## CC(C)N(C)c1ncnc2c1ncn2[C@H]1CN(Cc2ccc(Cl)cc2)C[C@@H](CO)O1
[21]
  IC50: > 80 µM (inactive)

## Oc1nc2cc(/N=C/c3c(O)ccc4cc(Br)ccc34)ccc2[nH]1
[30]
  IC50: > 50 µM (not active)
[31]
  EC50: 5.48 µM (active)
[32]
  EC50: > 99 µM (inactive)

## Fc1ccc(/N=c2\ssnc2Cl)c(F)c1
[6]
  IC50: 38.5 µM (inactive)
[30]
  IC50: 25.3 µM (active)

## COc1cc(C(=O)O[C@H]2CC(C)=CC[C@@]3(C)CC[C@@](O)(C(C)C)[C@H]23)ccc1O [TEFERIN]
[10]
  AC50: 1.19 µM (active)
[12]
  AC50: 4.06 µM (active)
[33]
  AC50: 2.35 µM (active)
[16]
  AC50: 35.6 µM (active)
[17]
  AC50: 1.64 µM (active)
